Reference: ChEMBL document CHEMBL3886376, “Bicyclic pyridazine compounds as Pim inhibitors” (2015)
pIC50: −log10 of the molar value.

Assays:
[1] = molecular target: Serine/threonine-protein kinase pim-1 (Homo sapiens, UniProt P11309); experiment: (§1) PIM Enzyme Assay: The assay for the determination of Pim activity is based on the formation of phosphorylated biotinylated-BAD peptide at the Serine 112 residue (S112) and employs HTRF (homogeneous time resolved fluorescence) technology to detect the product in a 96-well plate format. The phosphorylation of biotinylated-BAD (S112) peptide by full length recombinant Pim-1, Pim-2, or Pim-3 protein was detected with streptavidin:Allophycocyanin (APC) conjugate and a europium (Eu) labeled antibody directed against phosphorylated-BAD (S112). Excitation of Eu by a high energy laser light (337 nm) leads to a transfer of energy to the APC molecule, and results in an emission at 665 nm. The fluorescence is directly proportional to the amount of phosphorylated BAD peptide present in the reaction.Compounds were prepared in DMSO by conducting 3-fold serial dilutions to give a 10-point dosing curve having a high dose of 1 uM. A reference compound was included on each assay plate in order to validate that plate.
[2] = molecular target: Serine/threonine-protein kinase pim-2 (Homo sapiens, UniProt Q9P1W9); experiment: as §1

N[C@H]1CCC[C@@H](c2ccncc2Nc2ncc3ccc(-c4c(F)cccc4F)nn23)C1 (mixture of isomers)
pIC50 [1]: 8.40 | pIC50 [2]: 7.57
